Source: ChEMBL document CHEMBL5108019, “Discovery of a novel Pleuromutilin derivative as anti-IPF lead compound via high-throughput assay” (Eur J Med Chem, 2022)
≈ marks a conversion by molar mass, not a printed value. Calls of active or inactive are those of the source. No cut-off for these calls is given here.

Experiments:
[1] = molecular target: Transforming growth factor beta-1 proprotein/Mothers against decapentaplegic homolog 3 (Mus musculus) (UniProt P04202+Q8BUN5); assay: Inhibition of TGF-beta1/Smad3 signalling in TGF-beta1 treated mouse NIH3T3 cells transfected with (CAGA)12-Lux reporter gene assessed as suppressive ratio at 10 uM incubated for 18 hrs by luciferase based analysis relative to control; format: cell-based; parameters: scale not given: the % may be the effect or the level left
Transforming growth factor beta-1 proprotein/Mothers against decapentaplegic homolog 3 (Mus musculus), sequence (P04202 279-390 limits assumed): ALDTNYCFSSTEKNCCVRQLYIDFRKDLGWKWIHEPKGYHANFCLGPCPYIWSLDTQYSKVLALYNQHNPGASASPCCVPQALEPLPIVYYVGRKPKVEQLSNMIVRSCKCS
Transforming growth factor beta-1 proprotein/Mothers against decapentaplegic homolog 3 (Mus musculus), sequence (Q8BUN5 2-425 partner limits assumed): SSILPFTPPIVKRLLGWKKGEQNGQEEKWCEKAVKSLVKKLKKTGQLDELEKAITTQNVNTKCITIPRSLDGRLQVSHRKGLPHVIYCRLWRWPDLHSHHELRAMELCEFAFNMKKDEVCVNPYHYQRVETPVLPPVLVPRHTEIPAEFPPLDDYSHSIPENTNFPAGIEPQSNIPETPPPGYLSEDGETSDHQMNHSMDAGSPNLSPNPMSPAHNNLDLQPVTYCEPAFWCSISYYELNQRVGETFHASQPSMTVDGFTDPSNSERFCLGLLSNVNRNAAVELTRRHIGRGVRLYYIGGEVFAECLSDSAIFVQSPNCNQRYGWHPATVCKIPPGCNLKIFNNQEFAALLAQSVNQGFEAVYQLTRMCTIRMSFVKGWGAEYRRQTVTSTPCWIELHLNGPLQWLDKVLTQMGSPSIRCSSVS

Staphylococcus aureus = assay: Antibacterial activity against Staphylococcus aureus assessed as bacterial growth inhibition incubated for 24 hrs; format: functional
Bacillus subtilis = assay: Antibacterial activity against Bacillus subtilis assessed as bacterial growth inhibition incubated for 24 hrs; format: functional
Escherichia coli = assay: Antibacterial activity against Escherichia coli assessed as bacterial growth inhibition incubated for 24 hrs; format: functional
Mus musculus [2] = assay: Antifibrotic activity against BLM-induced pulmonary fibrosis in C57BL/6 mouse model assessed as improvement in pulmonary alveolar structure damage at 100 mg/kg, po administered once daily starting from day 7 post BLM treatment and measured on day 14 by H and E staining based analysis; format: functional, organism-based; conditions: time 14.0 day
Mus musculus [3] = assay: Antifibrotic activity against BLM-induced pulmonary fibrosis in C57BL/6 mouse model assessed as reduction in fibrosis region at 100 mg/kg, po administered once daily starting from day 7 post BLM treatment and measured on day 14 by hematoxylin-eosin and Masson trichrome staining based analysis relative to control; format: functional, organism-based; conditions: time 14.0 day

Structure (SMILES) | Activity [1] [%] | further results
C=C[C@]1(C)C[C@@H](O)[C@]2(C)[C@H](C)CC[C@]3(C/C(=C\c4ccccc4)C(=O)[C@H]32)[C@@H](C)[C@@H]1O | 15.2 | –
C=C[C@]1(C)C[C@@H](O)[C@]2(C)[C@H](C)CC[C@]3(C/C(=C\C4CCCC4)C(=O)[C@H]32)[C@@H](C)[C@@H]1O | 30.6 | –
NC(=O)c1ccc(-c2nc(-c3ccccn3)c(-c3ccc4c(c3)OCO4)[nH]2)cc1 | 98.9 | –
C=C[C@]1(C)C[C@@H](O)[C@]2(C)[C@H](C)CC[C@]3(C/C(=C\c4ccc(C(=O)N5CCCCC5)cc4)C(=O)[C@H]32)[C@@H](C)[C@@H]1O | -16.7 | –
C=C[C@]1(C)C[C@@H](O)[C@]2(C)[C@H](C)CC[C@]3(C/C(=C\c4ccc(C(=O)N5CCN(C)CC5)cc4)C(=O)[C@H]32)[C@@H](C)[C@@H]1O | 40.3 | MIC (Staphylococcus aureus): > 1000 µg/mL; MIC (Bacillus subtilis): > 1000 µg/mL; MIC (Escherichia coli): > 1000 µg/mL
C=C[C@]1(C)C[C@@H](O)[C@]2(C)[C@H](C)CC[C@]3(C/C(=C\c4ccccc4C)C(=O)[C@H]32)[C@@H](C)[C@@H]1O | 38.8 | –
C=C[C@]1(C)C[C@@H](O)[C@]2(C)[C@H](C)CC[C@]3(C/C(=C\c4c(C)cc(C)cc4C)C(=O)[C@H]32)[C@@H](C)[C@@H]1O | 42.5 | –
C=C[C@]1(C)C[C@@H](O)[C@]2(C)[C@H](C)CC[C@]3(C/C(=C\c4ncccc4F)C(=O)[C@H]32)[C@@H](C)[C@@H]1O | 13.5 | –
C=C[C@]1(C)C[C@@H](O)[C@]2(C)[C@H](C)CC[C@]3(C/C(=C\c4cccc(C(=O)NC5CCCCC5)c4)C(=O)[C@H]32)[C@@H](C)[C@@H]1O | -3.36 | –
C=C[C@]1(C)C[C@@H](O)[C@]2(C)[C@H](C)CC[C@]3(C/C(=C\c4ccc(C(=O)Nc5ccccc5)cc4)C(=O)[C@H]32)[C@@H](C)[C@@H]1O | -27.7 | –
C=C[C@]1(C)C[C@@H](O)[C@]2(C)[C@H](C)CC[C@]3(C/C(=C\C4CC4)C(=O)[C@H]32)[C@@H](C)[C@@H]1O | -10.8 | –
C=C[C@]1(C)C[C@@H](O)[C@]2(C)[C@H](C)CC[C@]3(C/C(=C\CCCC)C(=O)[C@H]32)[C@@H](C)[C@@H]1O | 16.9 | –
C=C[C@]1(C)C[C@@H](O)[C@]2(C)[C@H](C)CC[C@]3(C/C(=C\CC(C)(C)C)C(=O)[C@H]32)[C@@H](C)[C@@H]1O | 18.5 | –
C=C[C@]1(C)C[C@@H](O)[C@]2(C)[C@H](C)CC[C@]3(C/C(=C\c4ccccc4N4CCOCC4)C(=O)[C@H]32)[C@@H](C)[C@@H]1O | 20.6 | –
C=C[C@]1(C)C[C@@H](O)[C@]2(C)[C@H](C)CC[C@]3(C/C(=C\c4ccc(C(=O)NC5CCN(C)CC5)cc4)C(=O)[C@H]32)[C@@H](C)[C@@H]1O | -9.93 | –
C=C[C@]1(C)C[C@@H](O)[C@]2(C)[C@H](C)CC[C@]3(C/C(=C\C4CCCCC4)C(=O)[C@H]32)[C@@H](C)[C@@H]1O | 32.4 | –
Cc1ccc(=O)n(-c2ccccc2)c1 | – | Activity (Mus musculus [2]): Active; Activity (Mus musculus [3]): Active
C=C[C@]1(C)C[C@@H](O)[C@]2(C)[C@H](C)CC[C@]3(C/C(=C\c4cccc(C(=O)N5CCN(C)CC5)c4)C(=O)[C@H]32)[C@@H](C)[C@@H]1O | 7.27 | –
C=C[C@]1(C)C[C@@H](O)[C@]2(C)[C@H](C)CC[C@]3(C/C(=C\c4ccc5ccccc5c4)C(=O)[C@H]32)[C@@H](C)[C@@H]1O | 26.5 | –
C=C[C@]1(C)C[C@@H](O)[C@]2(C)[C@H](C)CC[C@]3(C/C(=C\c4ccco4)C(=O)[C@H]32)[C@@H](C)[C@@H]1O | 31 | –
C=C[C@]1(C)C[C@@H](O)[C@]2(C)[C@H](C)CC[C@]3(C/C(=C\CCC)C(=O)[C@H]32)[C@@H](C)[C@@H]1O | 0.45 | –
C=C[C@]1(C)C[C@@H](O)[C@]2(C)[C@H](C)CC[C@]3(C/C(=C\C(C)(C)C)C(=O)[C@H]32)[C@@H](C)[C@@H]1O | 6.58 | –
C=C[C@]1(C)C[C@@H](O)[C@]2(C)[C@H](C)CC[C@]3(C/C(=C\c4cccnc4)C(=O)[C@H]32)[C@@H](C)[C@@H]1O | 0.29 | –
C=C[C@]1(C)C[C@@H](O)[C@]2(C)[C@H](C)CC[C@]3(C/C(=C\c4cccc(C)c4)C(=O)[C@H]32)[C@@H](C)[C@@H]1O | 0.99 | –
C=C[C@]1(C)C[C@@H](O)[C@]2(C)[C@H](C)CC[C@]3(C/C(=C\C=C\c4ccccc4)C(=O)[C@H]32)[C@@H](C)[C@@H]1O | 34 | –
C=C[C@]1(C)C[C@@H](OC(=O)CO)[C@]2(C)[C@H](C)CC[C@]3(CCC(=O)[C@H]32)[C@@H](C)[C@@H]1O [PLEUROMULIN] | – | MIC (Staphylococcus aureus): 5 µg/mL (≈ 13.2 µM); MIC (Bacillus subtilis): 100 µg/mL (≈ 264 µM); MIC (Escherichia coli): 10 µg/mL (≈ 26.4 µM)

Continued, in another order:

Activity [1] [%] | Structure (SMILES) | further results
46 | C=C[C@]1(C)C[C@@H](O)[C@]2(C)[C@H](C)CC[C@]3(C/C(=C\c4ccc(SC)cc4)C(=O)[C@H]32)[C@@H](C)[C@@H]1O | –
21 | C=C[C@]1(C)C[C@@H](O)[C@]2(C)[C@H](C)CC[C@]3(C/C(=C\c4ccc(OC)cc4)C(=O)[C@H]32)[C@@H](C)[C@@H]1O | –
35.5 | C=C[C@]1(C)C[C@@H](O)[C@]2(C)[C@H](C)CC[C@]3(C/C(=C\c4ccc(C(F)(F)F)cc4)C(=O)[C@H]32)[C@@H](C)[C@@H]1O | –
32.8 | C=C[C@]1(C)C[C@@H](O)[C@]2(C)[C@H](C)CC[C@]3(C/C(=C\c4ccc(C)cc4)C(=O)[C@H]32)[C@@H](C)[C@@H]1O | –
-20.3 | C=C[C@]1(C)C[C@@H](O)[C@]2(C)[C@H](C)CC[C@]3(C/C(=C\c4ccc(C(=O)N(C)C)cc4)C(=O)[C@H]32)[C@@H](C)[C@@H]1O | –
48.9 | C=C[C@]1(C)C[C@@H](O)[C@]2(C)[C@H](C)CC[C@]3(C/C(=C\c4ccc(Cl)cc4)C(=O)[C@H]32)[C@@H](C)[C@@H]1O | –
35.3 | C=C[C@]1(C)C[C@@H](O)[C@]2(C)[C@H](C)CC[C@]3(C/C(=C\c4ccc(F)cc4)C(=O)[C@H]32)[C@@H](C)[C@@H]1O | –
13.3 | C=C[C@]1(C)C[C@@H](O)[C@]2(C)[C@H](C)CC[C@]3(C/C(=C\c4ccc(C(C)(C)C)cc4)C(=O)[C@H]32)[C@@H](C)[C@@H]1O | –
-19.9 | C=C[C@]1(C)C[C@@H](O)[C@]2(C)[C@H](C)CC[C@]3(C/C(=C\c4ccc(C(=O)N5CCOCC5)cc4)C(=O)[C@H]32)[C@@H](C)[C@@H]1O | –
41.4 | C=C[C@]1(C)C[C@@H](O)[C@]2(C)[C@H](C)CC[C@]3(C/C(=C\c4ccc(C(=O)O)cc4)C(=O)[C@H]32)[C@@H](C)[C@@H]1O | MIC (Staphylococcus aureus): > 1000 µg/mL; MIC (Bacillus subtilis): > 1000 µg/mL; MIC (Escherichia coli): > 1000 µg/mL
-0.41 | C=C[C@]1(C)C[C@@H](O)[C@]2(C)[C@H](C)CC[C@]3(C/C(=C\c4cccc(C(=O)O)c4)C(=O)[C@H]32)[C@@H](C)[C@@H]1O | –
